The text below walks through data of ChEMBL document CHEMBL5550117, “Dual-target inhibitors based on ERα: Novel therapeutic approaches for endocrine resistant breast cancer” (Eur J Med Chem, 2024).

A word on the IC50: it is the point on the concentration scale where inhibition reaches its midpoint.

In test [1] the test system is MCF7. The test can be described thus: Antiproliferative activity against human MCF7 cells assessed as reduction in cell viability incubated for 48 hrs by MTT assay. The conditions noted are these: MCF7, 48 h. (In general: Formazan colour is commonly taken as a measure of viable cells.)
The subject of test [2] is MCF7. The test can be described thus: Anti-clonogenic activity in human MCF7 cells assessed as reduction of colony formation incubated for 2 weeks by crystal violet staining based assay. The conditions noted are these: MCF7, 336 h.
The nature of test [3]: Inhibition of NF-kappaB pathway in human MCF7 cells assessed as reduction in TNFalpha level by RT-PCR analysis.
In test [4] the target is T1, Protein deacetylase HDAC6 (Homo sapiens, UniProt Q9UBN7).
T1 sequence (Q9UBN7 whole entry): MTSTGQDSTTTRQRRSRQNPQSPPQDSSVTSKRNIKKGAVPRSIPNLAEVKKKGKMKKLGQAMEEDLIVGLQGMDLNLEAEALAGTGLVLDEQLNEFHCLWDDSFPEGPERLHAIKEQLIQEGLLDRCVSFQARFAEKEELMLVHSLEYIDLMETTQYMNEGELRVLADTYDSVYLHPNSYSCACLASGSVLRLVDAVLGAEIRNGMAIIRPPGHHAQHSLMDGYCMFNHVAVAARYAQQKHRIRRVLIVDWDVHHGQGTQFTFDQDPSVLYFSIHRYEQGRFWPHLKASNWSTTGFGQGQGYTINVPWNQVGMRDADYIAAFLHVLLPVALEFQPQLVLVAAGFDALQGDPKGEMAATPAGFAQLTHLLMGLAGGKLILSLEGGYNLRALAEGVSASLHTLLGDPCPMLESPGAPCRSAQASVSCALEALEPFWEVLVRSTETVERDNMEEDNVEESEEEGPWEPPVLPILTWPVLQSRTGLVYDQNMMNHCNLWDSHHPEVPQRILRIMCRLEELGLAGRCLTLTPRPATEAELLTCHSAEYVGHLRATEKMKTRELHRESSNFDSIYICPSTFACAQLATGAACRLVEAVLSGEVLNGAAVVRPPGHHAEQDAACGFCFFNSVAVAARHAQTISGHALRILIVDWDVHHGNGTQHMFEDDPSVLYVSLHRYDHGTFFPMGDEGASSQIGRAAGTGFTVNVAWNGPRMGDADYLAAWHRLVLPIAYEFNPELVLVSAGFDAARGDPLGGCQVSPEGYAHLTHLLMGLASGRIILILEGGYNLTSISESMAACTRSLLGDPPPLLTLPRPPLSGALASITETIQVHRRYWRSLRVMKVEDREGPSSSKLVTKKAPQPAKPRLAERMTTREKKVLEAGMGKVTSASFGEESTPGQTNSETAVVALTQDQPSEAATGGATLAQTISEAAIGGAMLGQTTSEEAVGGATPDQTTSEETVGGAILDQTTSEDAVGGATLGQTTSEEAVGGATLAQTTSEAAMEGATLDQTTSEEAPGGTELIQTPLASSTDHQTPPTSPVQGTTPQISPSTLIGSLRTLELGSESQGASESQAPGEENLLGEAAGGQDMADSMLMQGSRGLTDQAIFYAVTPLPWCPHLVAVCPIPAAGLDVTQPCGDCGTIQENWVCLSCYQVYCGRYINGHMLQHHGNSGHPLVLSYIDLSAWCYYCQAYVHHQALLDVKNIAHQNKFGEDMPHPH
The test is described as follows: Inhibition of HDAC6 (unknown origin).

`CCOC(=O)/C=C/C(=O)NCCOc1ccc(C(=O)c2c(-c3ccc(O)cc3)sc3cc(O)ccc23)cc1`: the concentration for half-maximal inhibition (IC50) with MCF7 [1] was 0.5 µM; in the test on MCF7 [2] it was 2 µM; in test [3], 4 µM.
In test [4], `CC/C(=C(\c1ccccc1)c1ccc(OCCN(C)Cc2ccc(NC(=O)CCCCCCC(=O)NO)cc2)cc1)c1ccccc1` yielded an IC50 of 2.2 µM.
